# Assay results taken from paper PMC10096391, “Discovery of N,4-Di(1H-pyrazol-4-yl)pyrimidin-2-amine-Derived CDK2 Inhibitors as Potential Anticancer Agents: Design, Synthesis, and Evaluation” (Molecules, 2023).
# Tests used:
# Format in all cases: cell-based
# [1] = tested on: MDA-MB-231 breast cancer cells; test: Cell viability assay (MTT/resazurin), MDA-MB-231; conditions: Homo sapiens, read-out: Antiproliferative Activity, GI50
# Source text: (§1) Cancer cell lines derived from leukemia (MV4-11 and U937), breast (MCF7 (Rb-positive) and MDA-MB-231(Rb-negative)), and ovarian (A2780, OVCAR5, OAW28, OV90, Cov318, and Cov504) cancers, and glioblastoma (U87, T98G and U251) were acquired from the cell bank at Drug Discovery and Development, University of South Australia, and cultured according to the American Type Culture Collection (ATCC) recommendation in Roswell Park Memorial Institute (RPMI)-1640, Dulbecco’s Modified Eagle’s Medium (DMEM), or Minimum Essential Media (MEM), with 10% fetal bovine serum (Sigma-Aldrich, Castle Hill, NSW, Australia) within a humidified incubator at 37 °C in the presence of 5% CO2.
# (§2) The MTT (Life Technologies, Mulgrave, VIC, Australia) and resazurin (Sigma-Aldrich) assays were used to determine the antiproliferative activities of the compounds initially at 1 µM against the cancer cell lines stated above.
# OVCAR5 cells [2] = test: Annexin V/PI apoptosis assay, OVCAR5; conditions: 48 h
# Procedure: (§3) Annexin V-fluorescein isothiocyanate (FITC) apoptosis detection kit I (consisting of a ten-time stock solution of binding buffer, FITC–annexin V, and PI staining solution) was used to determine the effect of the compounds on cancer cell survival as previously reported. Briefly, six-well plates (Sigma-Aldrich, NSW, Australia) were seeded with about 1–2 × 10^5 cells/well in 2 mL growth medium, incubated at 37 °C and 5% CO2 overnight, treated with various concentrations of the test compounds, and incubated for 48 h. The wells were collected by trypsinization, transferred into FACS tubes, washed twice with 1 × PBS, and centrifuged at 300× g for 5 min. The pellets were then suspended in 100 µL of 1 × binding buffer and incubated in the dark with 3 µL of PI and 3 µL of FITC-conjugated annexin V solutions for 15 min. Finally, 200 µL of binding buffer was added to each sample and analyzed by the CytoFLEX cytometer. The extent of apoptotic cell death was quantified as the sum of the percentages of early apoptotic cells (annexin V-positive and PI-negative) and late apoptotic cells (both annexin–V- and PI-positive) and presented graphically as a contour diagram relative to the untreated control.
# OVCAR5 cells [3] = test: Western blot analysis of OVCAR5 cells
# Procedure: Western blot analysis of the compounds was carried out as previously reported. The antibodies were purchased from Cell Signaling Technology (Danvers, MA, USA).
# A2780 cells = test: Annexin V/PI apoptosis assay, A2780; conditions: 48 h
# Procedure: as §3
# OVCAR5 cells [4] = test: Cell cycle analysis by flow cytometry, OVCAR5; conditions: 48 h
# Procedure: The effect of the compounds on cell cycle distribution was evaluated following a previously reported method. Briefly, six-well plates (Sigma-Aldrich, NSW, Australia) were seeded with about 1–2 × 10^5 cells/well in 2 mL growth medium, incubated at 37 °C and 5% CO2 overnight, and treated with various concentrations of the test compounds and incubated for 48 h. The wells were collected by trypsinization, transferred into fluorescence-activating cell sorting (FACS) tubes, washed with 1 × phosphate-buffered saline (1 × PBS) twice, fixed in 70% (v/v) ice-cold ethanol for 15 min, and centrifuged at 300× g for 5 min. The cell pellets were then collected, stained with 200 µL of the cell cycle solution (comprising 50.0 μg/mL PI, 0.1 mg/mL RNase A, and 0.05% Triton X-100), and incubated for 1.5 h at room temperature in the dark. Finally, the DNA content was determined by a flow cytometer (CytoFLEX) and analyzed by CytExpert 2.1 software (Beckman Coulter, Brea, CA, USA).
# OV90 cells = test: Colony formation (crystal violet), OV90; conditions: OV90, 10 days
# Procedure: Briefly, ovarian cancer cells (i.e., A2780, OVCAR5, and OV90) seeded in six-well plates were adhered for 6 h and treated with 15. The medium that contained the compound was then changed every 72 h. Ten days after treatment, the cells were washed with PBS, fixed, and stained with crystal violet staining solution (0.05% crystal violet, 1% formaldehyde, 1% PBS, and 1% ethanol), and colonies were quantified using ImageJ software (National Institute of Health, Maryland, USA), with data presented as percentages of the control cells.
# U87 glioblastoma cells = test: Cell viability assay (MTT/resazurin), U87; conditions: read-out: Antiproliferative Activity, GI50
# Source text: as §1, §2
# [5] = tested on: Cov318 ovarian cancer cells; test: Cell viability assay (MTT/resazurin), Cov318; conditions: read-out: Antiproliferative Activity, GI50
# Source text: as §1, §2
# MCF7 breast cancer cells = test: Cell viability assay (MTT/resazurin), MCF7; conditions: Homo sapiens, read-out: Antiproliferative Activity, GI50
# Source text: as §1, §2
# [6] = tested on: panel of 13 cancer cell lines; test: Antiproliferative activity, cancer cell line panel; conditions: all cancer cell lines tested; read-out: GI50 range over the cancer cell line panel
# Source text: as §1, §2
smiles,measurement,setting,value
"Cn1cc(-c2nc(Nc3cn[nH]c3)ncc2Cl)cn1 [Compound 15, 5-Chloro-4-(1-methyl-1H-pyrazol-4-yl)-N-(1H-pyrazol-4-yl)pyrimidin-2-amine]",GI50,[1],0.458 µM
same,viability at 0.5 µM,"OVCAR5 cells [2]; Homo sapiens, OVCAR-5, OVCAR5, 0.5 µM, read-out: Q1-LL, viable cells",67.4%
same,viability at 2 µM,"OVCAR5 cells [2]; Homo sapiens, OVCAR-5, OVCAR5, 2 µM, read-out: Q1-LL, viable cells",57.8%
same,"apoptosis (annexin V positive, early + late)","OVCAR5 cells [2]; OVCAR5, 0.5 µM",30%
same,"apoptosis (annexin V positive, early + late)","OVCAR5 cells [2]; OVCAR5, 2 µM",38%
same,p-FAK(Ser732) level (CDK5 kinase activity in cells),"OVCAR5 cells [3]; OVCAR5, 2 µM, 48 h",completely abolished
same,p-RNAPol-II(Ser2) level (CDK9 kinase activity in cells),"OVCAR5 cells [3]; OVCAR5, 2 µM, 48 h",completely abolished
same,p-Rb(Thr821) level (CDK2 kinase activity in cells),"OVCAR5 cells [3]; OVCAR5, 2 µM, 48 h",completely abolished
same,anti-apoptotic protein MCL1,"OVCAR5 cells [3]; OVCAR5, 48 h",downregulation
same,caspase-3,"OVCAR5 cells [3]; OVCAR5, 48 h",cleavage
same,"phosphorylated histone H2AX (p-H2AX), DNA damage marker","OVCAR5 cells [3]; OVCAR5, 48 h",appearance
same,"apoptosis (annexin V positive, early + late)","A2780 cells; A2780, 0.5 µM",47%
same,"apoptosis (annexin V positive, early + late)","A2780 cells; A2780, 2 µM",49%
same,viability at 0.5 µM,"A2780 cells; Homo sapiens, A2780, 0.5 µM, read-out: Q1-LL, viable cells",52.7%
same,viability at 2 µM,"A2780 cells; Homo sapiens, A2780, 2 µM, read-out: Q1-LL, viable cells",50.5%
same,increment in the subpopulation of G2/M cells compared to the vehicle control,"OVCAR5 cells [4]; OVCAR5, 0.5 µM",39%
same,G2/M cells,"OVCAR5 cells [4]; OVCAR5, 2 µM",53%
same,S-phase cells,"OVCAR5 cells [4]; OVCAR5, 2 µM",26%
same,effect on colony formation,OV90 cells; 0.5 µM,partial inhibition
same,effect on colony formation,"OV90 cells; 15 at 0.5 and 2 µM, CYC065 at 0.5 µM",inhibited
same,GI50,U87 glioblastoma cells,0.56 µM
same,GI50,[5],0.488 µM
same,GI50,MCF7 breast cancer cells,0.342 µM
same,GI50,[6],0.127 to 0.56 µM
